# Test results reported in ChEMBL document CHEMBL1201862, “PubChem BioAssay data set” (2004).
# Calls of active or inactive are those of the source.
# Legend:
# Heat shock protein HSP90 = Heat shock protein HSP90 (Homo sapiens, UniProt P07900+P08238); test: Hsp90 blockade concentration-response – dose response (AID 712); assay type: functional
# Large T antigen = Large T antigen (Simian virus 40, UniProt P03070); assay type: functional, Betapolyomavirus macacae;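 further: Confirmatory-stage PubChem screen for compounds that inhibit SV40 T antigen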
# [1] = target: T1, Replicative DNA helicase DnaB (Mycobacterium tuberculosis, UniProt P9WMR3); test: DnaB intein splicing inhibitors, dose response, biochemical, cell-free fluorescence (AID 449749); assay type: functional
# T1 sequence (P9WMR3 whole entry): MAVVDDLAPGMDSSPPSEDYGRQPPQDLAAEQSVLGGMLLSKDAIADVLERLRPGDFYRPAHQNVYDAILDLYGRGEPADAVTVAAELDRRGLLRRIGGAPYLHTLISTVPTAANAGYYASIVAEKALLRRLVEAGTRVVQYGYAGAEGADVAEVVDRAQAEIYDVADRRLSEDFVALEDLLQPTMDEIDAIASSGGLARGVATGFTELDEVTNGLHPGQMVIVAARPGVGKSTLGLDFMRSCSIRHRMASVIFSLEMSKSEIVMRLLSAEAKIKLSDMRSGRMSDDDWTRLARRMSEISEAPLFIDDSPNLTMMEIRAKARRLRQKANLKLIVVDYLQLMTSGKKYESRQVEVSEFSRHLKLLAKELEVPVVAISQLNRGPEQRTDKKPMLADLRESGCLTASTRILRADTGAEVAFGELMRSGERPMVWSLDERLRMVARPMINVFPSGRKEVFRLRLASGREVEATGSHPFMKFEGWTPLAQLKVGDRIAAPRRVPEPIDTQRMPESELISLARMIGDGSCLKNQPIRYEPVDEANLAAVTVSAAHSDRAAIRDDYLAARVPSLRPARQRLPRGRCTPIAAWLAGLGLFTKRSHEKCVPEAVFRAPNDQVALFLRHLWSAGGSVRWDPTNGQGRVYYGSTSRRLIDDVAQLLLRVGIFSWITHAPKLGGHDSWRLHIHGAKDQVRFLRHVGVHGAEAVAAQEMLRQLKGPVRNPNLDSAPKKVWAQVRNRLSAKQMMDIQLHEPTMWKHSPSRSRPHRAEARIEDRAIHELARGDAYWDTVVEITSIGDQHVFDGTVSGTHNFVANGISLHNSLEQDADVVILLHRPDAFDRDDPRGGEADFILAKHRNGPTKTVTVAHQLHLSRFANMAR
# Protein RecA = target: T2, Protein RecA (Mycobacterium tuberculosis, UniProt P9WHJ3); test: Fluorescence Cell-Free Homogeneous Dose Retest to Identify Inhibitors of RecA-Intein Splicing Activity. [Related pubchem assays (depositor defined):AID2097, AID2223, AID489010, AID492950]; assay type: functional
# T2 sequence (P9WHJ3 whole entry): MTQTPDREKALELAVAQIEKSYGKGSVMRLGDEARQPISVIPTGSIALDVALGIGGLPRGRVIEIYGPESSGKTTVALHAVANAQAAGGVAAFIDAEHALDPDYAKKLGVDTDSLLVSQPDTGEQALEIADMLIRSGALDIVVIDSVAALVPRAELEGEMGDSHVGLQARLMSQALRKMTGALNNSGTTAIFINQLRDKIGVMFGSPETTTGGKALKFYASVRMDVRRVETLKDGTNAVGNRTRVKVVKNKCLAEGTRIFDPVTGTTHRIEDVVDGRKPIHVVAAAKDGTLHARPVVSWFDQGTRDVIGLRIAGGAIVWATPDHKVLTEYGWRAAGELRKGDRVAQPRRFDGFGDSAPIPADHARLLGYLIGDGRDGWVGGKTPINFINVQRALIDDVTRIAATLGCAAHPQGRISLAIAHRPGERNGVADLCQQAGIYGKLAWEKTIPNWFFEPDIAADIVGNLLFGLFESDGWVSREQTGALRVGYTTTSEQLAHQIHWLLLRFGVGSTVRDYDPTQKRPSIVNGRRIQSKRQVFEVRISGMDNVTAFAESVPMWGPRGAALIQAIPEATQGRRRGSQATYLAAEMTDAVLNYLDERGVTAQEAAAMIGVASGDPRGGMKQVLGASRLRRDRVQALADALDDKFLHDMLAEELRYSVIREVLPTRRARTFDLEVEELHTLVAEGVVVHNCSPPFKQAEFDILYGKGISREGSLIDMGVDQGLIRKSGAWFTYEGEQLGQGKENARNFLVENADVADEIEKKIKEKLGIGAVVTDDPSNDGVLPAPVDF
# Protein Tat = target: T3, Protein Tat (Human immunodeficiency virus type 1 group M subtype B (isolate HXB2)(HIV-1), UniProt P04608); assay type: functional;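 further: tat binding to TAR RNA read out by fluorescence polarization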
# T3 sequence (P04608 whole entry): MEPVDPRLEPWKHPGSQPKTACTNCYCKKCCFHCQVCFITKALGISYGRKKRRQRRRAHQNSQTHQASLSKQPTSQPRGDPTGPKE
# [2] = viability loss in THP-1 monocytes – THP-1 cells, cytotoxicity control for Vif-APOBEC3G degradation inhibitor project, dose response (AID 1117359); assay type: functional; details: THP-1
# Genome polyprotein = Genome polyprotein (Hepatitis C virus, UniProt Q2Q167); test: disruption of hepatitis C core self-association – biochemical, TR-FRET, dose response (AID 2159); design: species or system Hepacivirus hominis;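 further: blocks dimerization of HCV core protein measured by TR-FRET between tagged core106 pairs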
# Estrogen receptor = target: T4, Estrogen receptor (Homo sapiens, UniProt P03372);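 further: potency for inhibiting coactivator peptide recruitment to the receptor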
# T4 sequence (P03372 whole entry): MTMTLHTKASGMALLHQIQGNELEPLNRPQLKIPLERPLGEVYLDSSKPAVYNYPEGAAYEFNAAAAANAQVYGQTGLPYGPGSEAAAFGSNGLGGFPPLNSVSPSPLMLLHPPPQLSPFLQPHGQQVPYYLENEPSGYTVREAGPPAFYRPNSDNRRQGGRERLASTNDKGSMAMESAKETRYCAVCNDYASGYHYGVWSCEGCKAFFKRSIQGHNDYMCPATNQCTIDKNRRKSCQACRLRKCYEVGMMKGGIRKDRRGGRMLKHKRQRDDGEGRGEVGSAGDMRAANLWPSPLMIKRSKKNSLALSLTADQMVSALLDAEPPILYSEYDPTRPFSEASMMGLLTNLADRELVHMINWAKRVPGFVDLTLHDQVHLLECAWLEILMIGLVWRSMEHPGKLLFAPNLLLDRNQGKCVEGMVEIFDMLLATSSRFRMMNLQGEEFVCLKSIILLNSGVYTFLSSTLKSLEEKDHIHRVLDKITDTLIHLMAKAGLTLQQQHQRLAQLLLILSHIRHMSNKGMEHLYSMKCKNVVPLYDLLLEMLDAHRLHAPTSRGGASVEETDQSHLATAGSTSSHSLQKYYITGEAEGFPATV
# [3] = target: Dual specificity tyrosine-phosphorylation-regulated kinase 1A (Rattus norvegicus, UniProt Q63470); assay type: biochemical, Homo sapiens
# [4] = target: T5, Carboxy-terminal domain RNA polymerase II polypeptide A small phosphatase 1 (Homo sapiens, UniProt Q9GZU7); test: CTDSP1 inhibitors, concentration-response, biochemical, absorbance readout, ultra-high-throughput screen actives (AID 540297); assay type: functional
# T5 sequence (Q9GZU7 whole entry): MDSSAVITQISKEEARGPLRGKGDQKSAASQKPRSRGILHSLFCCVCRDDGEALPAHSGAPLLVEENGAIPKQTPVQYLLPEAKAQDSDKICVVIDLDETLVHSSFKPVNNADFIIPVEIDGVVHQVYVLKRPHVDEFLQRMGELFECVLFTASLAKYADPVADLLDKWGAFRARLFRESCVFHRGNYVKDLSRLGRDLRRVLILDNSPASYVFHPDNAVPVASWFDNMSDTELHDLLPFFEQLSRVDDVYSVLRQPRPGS
# [5] = target: T6, Mannose-6-phosphate isomerase (Homo sapiens, UniProt P34949); test: MPI enzyme activity inhibition – biochemical, fluorescence intensity, coupled assay, primary screen (AID 1209)
# T6 sequence (P34949 whole entry): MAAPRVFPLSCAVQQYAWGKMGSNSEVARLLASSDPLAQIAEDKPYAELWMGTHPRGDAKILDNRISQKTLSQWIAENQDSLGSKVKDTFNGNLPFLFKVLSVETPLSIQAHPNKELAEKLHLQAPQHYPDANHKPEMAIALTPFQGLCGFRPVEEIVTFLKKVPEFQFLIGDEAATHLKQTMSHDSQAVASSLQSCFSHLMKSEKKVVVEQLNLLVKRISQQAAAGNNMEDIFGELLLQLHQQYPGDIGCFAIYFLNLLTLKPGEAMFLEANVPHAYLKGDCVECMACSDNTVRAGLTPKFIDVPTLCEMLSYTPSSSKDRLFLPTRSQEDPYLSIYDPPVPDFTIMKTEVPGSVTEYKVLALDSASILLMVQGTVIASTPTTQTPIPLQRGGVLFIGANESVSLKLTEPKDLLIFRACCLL
# [6] = target: T7, Calpain-2 catalytic subunit (Sus scrofa, UniProt P43367); test: m-calpain protease blockers, concentration series – biochemical, fluorogenic peptide substrate, dose response (AID 1420); assay type: functional
# T7 sequence (P43367 whole entry): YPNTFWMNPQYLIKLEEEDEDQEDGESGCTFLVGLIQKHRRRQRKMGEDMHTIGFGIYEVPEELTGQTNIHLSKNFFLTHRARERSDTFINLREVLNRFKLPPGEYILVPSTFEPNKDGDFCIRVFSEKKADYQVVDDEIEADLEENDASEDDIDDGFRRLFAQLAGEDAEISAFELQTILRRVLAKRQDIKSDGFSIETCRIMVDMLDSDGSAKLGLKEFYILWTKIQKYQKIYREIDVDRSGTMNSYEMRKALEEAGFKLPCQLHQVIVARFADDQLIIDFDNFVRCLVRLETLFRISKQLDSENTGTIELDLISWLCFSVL
# [7] = viability loss in Vero cells – cytotoxicity control for Vif-APOBEC3G degradation inhibitor project, dose response (AID 1117358); assay type: functional; details: Vero
# NS3 = NS3 (Hepatitis C virus, UniProt A3EZJ3); test: PubChem AID 2173; design: species or system Hepacivirus hominis
# [8] = target: Solute carrier family 12 member 2/member 5 (Homo sapiens, UniProt P55011+Q9H2X9); test: KCC2 and NKCC1 inhibition by rubidium flux, cell-based, NKCC1 counter-screen (AID 1734); assay type: functional, HEK293
# [9] = target: E3 ubiquitin-protein ligase Mdm2 (Homo sapiens, UniProt Q00987); test: MDM2-luc reporter signal enhancers, multi-concentration potency testing, MDM2 ubiquitin-protein ligase inhibitor program, whole-cell format, luminescence detection, 384-well microplate (AID 1394); assay type: functional;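 further: MDM2 E3 inhibitors raise luminescence so EC50 is for signal enhancement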
# [10] = target: T8, Microphthalmia-associated transcription factor (Homo sapiens, UniProt O75030); test: reducers of TRPM1 reporter luminescence, concentration series – cell-based, SK-MEL-5, cherry-picked, set 3, MITF inhibitor project, dose response (AID 493073); assay type: functional;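 further: SK-MEL-5 melanoma cells with luciferase driven by the MITF target TRPM1 promoter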
# T8 sequence (O75030 whole entry): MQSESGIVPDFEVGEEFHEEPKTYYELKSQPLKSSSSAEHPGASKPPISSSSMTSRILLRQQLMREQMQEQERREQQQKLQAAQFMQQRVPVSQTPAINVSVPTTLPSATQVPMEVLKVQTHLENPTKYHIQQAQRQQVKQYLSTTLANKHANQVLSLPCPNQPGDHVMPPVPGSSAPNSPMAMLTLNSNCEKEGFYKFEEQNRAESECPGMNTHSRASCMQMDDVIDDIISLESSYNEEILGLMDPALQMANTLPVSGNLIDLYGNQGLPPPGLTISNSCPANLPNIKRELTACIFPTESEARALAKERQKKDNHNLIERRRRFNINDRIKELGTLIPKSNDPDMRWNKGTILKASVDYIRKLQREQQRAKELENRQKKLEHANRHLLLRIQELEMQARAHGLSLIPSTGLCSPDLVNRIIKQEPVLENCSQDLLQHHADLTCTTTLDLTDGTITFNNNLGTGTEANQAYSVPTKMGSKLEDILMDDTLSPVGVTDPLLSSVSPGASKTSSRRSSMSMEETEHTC
# [11] = NIH-3T3 fibroblast cytotoxicity, dose response, cytotoxicity control, cell-based, fluorescence, Alamar Blue, secondary assay (AID 2327); assay type: functional;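 further: NIH-3T3 mouse fibroblasts cultured with fluconazole at 8 µg/mL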
# [12] = fluconazole-exposed Candida albicans growth modulators – fluorescence, retest, confirmation (AID 2467); assay type: functional, cell-based
# [13] = target: T6, Mannose-6-phosphate isomerase; test: MPI inhibition at elevated mannose 6-phosphate – biochemical, fluorescence intensity, high mannose 6-phosphate, primary screen (AID 1220)
# [14] = target: DNA dC->dU-editing enzyme APOBEC-3G (Homo sapiens, UniProt Q9HC16); test: Dose Response confirmation of small molecule APOBEC3G DNA Deaminase Inhibitors via a fluorescence-based single-stranded DNA deaminase assay. [Related pubchem assays (depositor defined):AID493012, AID493028]; assay type: functional
# Chain of DNA dC->dU-editing enzyme APOBEC-3G (Q9HC16 whole entry): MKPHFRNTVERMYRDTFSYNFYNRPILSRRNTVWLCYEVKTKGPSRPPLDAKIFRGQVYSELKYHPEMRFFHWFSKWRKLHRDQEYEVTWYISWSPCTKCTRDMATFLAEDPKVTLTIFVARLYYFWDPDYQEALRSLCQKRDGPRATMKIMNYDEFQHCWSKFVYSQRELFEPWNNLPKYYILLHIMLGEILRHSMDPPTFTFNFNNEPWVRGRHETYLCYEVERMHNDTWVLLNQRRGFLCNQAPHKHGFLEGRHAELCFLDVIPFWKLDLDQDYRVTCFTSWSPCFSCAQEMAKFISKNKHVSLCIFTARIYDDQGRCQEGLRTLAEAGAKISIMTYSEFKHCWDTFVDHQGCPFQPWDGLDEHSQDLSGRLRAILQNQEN
# Chain of Large T antigen (P03070 whole entry): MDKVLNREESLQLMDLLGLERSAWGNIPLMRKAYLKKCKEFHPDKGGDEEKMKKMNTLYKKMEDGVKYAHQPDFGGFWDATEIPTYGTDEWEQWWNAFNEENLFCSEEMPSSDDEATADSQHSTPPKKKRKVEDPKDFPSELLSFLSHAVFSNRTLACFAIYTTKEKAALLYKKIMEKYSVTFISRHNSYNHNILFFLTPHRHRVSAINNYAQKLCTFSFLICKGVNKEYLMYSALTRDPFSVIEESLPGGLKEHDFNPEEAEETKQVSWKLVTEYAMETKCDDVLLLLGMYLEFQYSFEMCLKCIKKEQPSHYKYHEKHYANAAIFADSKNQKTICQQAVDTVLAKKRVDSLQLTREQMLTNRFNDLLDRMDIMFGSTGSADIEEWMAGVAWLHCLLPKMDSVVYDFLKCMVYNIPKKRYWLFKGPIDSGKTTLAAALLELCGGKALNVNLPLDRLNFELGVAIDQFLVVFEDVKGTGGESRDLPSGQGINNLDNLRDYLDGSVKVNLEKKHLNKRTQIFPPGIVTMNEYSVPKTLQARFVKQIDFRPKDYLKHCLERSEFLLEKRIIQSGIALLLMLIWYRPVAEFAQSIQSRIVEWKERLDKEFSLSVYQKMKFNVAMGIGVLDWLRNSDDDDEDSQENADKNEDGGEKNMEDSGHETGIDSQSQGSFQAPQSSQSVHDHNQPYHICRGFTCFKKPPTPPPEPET
# Chain of E3 ubiquitin-protein ligase Mdm2 (Q00987 whole entry): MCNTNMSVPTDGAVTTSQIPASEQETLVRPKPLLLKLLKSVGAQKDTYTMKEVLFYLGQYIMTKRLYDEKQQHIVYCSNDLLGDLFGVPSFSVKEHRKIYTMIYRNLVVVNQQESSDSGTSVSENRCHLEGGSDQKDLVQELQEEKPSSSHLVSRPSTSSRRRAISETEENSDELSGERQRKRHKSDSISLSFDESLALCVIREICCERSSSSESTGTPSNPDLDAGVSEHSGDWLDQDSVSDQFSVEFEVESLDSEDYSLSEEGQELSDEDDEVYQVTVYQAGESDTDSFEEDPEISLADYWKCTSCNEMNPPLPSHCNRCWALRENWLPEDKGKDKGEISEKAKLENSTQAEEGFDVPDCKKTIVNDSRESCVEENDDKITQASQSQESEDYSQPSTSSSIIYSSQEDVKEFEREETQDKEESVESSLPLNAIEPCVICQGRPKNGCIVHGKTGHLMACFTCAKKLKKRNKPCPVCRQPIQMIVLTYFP
# Chain of NS3 (A3EZJ3 whole entry): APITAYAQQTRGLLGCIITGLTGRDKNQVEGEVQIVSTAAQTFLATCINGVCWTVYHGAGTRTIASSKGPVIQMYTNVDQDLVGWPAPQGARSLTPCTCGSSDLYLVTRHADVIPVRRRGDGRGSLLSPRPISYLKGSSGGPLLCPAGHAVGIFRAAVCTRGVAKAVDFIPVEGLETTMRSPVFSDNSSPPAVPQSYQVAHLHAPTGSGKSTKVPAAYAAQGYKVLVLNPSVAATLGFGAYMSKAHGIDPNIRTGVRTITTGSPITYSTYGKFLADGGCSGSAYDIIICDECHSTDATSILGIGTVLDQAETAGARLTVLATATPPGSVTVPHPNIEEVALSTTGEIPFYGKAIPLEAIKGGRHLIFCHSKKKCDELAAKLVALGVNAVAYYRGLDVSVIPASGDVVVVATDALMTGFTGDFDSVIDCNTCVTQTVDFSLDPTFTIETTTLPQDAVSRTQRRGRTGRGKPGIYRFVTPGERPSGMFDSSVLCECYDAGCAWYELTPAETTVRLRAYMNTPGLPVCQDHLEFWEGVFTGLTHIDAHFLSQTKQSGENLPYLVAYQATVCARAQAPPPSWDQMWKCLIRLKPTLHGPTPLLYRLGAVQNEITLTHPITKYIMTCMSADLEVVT
# Chain of Genome polyprotein (Q2Q167 whole entry): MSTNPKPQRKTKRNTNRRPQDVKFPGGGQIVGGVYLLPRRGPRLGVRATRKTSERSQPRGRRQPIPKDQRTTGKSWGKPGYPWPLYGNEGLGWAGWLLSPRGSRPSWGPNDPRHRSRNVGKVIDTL
structure (smiles),measurement,setting,value
Oc1ccc(/N=C/c2ccc(O)c(O)c2)cc1,IC50,Heat shock protein HSP90,20.6061 µM
same,IC50,Large T antigen,9.16 µM (active)
same,AC50,[1],10.5 µM (inconclusive)
same,EC50,Protein RecA,> 380 µM (inconclusive)
same,IC50,Protein Tat,15 µM (inconclusive)
same,CC50,[2],22.2 µM (active)
CCC1(CC)NC(=O)N(CC(=O)Nc2sc3c(c2C(N)=O)CCC3)C1=O,IC50,Genome polyprotein,> 49.8 µM (not active)
same,IC50,Estrogen receptor,< 1.56 µM (active)
same,AC50,[3],32.9 µM (active)
same,IC50,[4],3.98 µM (active)
CCOc1cc(CNc2ccc(O)cc2)ccc1OCc1ccc(Cl)cc1Cl,IC50,[5],> 50 µM (not active)
same,IC50,[6],7.31 µM (not active)
same,AC50,[1],> 380 µM (inconclusive)
same,EC50,Protein RecA,331 µM (active)
same,IC50,Protein Tat,34 µM (inconclusive)
same,CC50,[2],13.9 µM (active)
same,CC50,[7],> 40 µM (active)
CCOc1ccc(N2C(=O)C3Sc4nc(O)sc4C(/C=C/c4ccccc4)C3C2=O)cc1 (stereo not given),IC50,NS3,15.4 µM (not active)
same,IC50,[8],0.3 µM (active)
CC(C)CC(=O)/C=C/n1c(=S)oc2ccccc21,EC50,[9],1.2 µM (active)
same,AC50,[10],10.5 µM (active)
O=[N+]([O-])c1ccc2c(c1)nc(S)n2-c1ccccc1,EC50,[11],> 150 µM (inactive)
same,EC50,[12],2.85 µM (active)
same,IC50,[13],39.6 µM (active)
same,IC50,[14],9.42 µM (active)
